According to US7560473B2 (Institute of Pharmacology and Toxicology Academy of …, priority 2001, dated 2009):

Experiments:
[1] = target: T1, ATP-sensitive potassium channels in vascular smooth muscles (Rattus norvegicus, UniProt Q63563); assay: Inhibition of specific binding of [^3H]P1075 in endothelium-removed rat aorta; parameters: species or system Wistar rat; details: [^3H] P1075 5 nmol L^−1, 90 minutes at 37° C., endothelium-removed rat aorta
T1 construct: The aorta was cut into about 3-5 mm arterial rings and the vascular endothelium was scraped off; from tissue; host or cells: endothelium-removed aortic rings of male Wistar rats
T1 sequence (Q63563 1-1545 isoform Q63563-2): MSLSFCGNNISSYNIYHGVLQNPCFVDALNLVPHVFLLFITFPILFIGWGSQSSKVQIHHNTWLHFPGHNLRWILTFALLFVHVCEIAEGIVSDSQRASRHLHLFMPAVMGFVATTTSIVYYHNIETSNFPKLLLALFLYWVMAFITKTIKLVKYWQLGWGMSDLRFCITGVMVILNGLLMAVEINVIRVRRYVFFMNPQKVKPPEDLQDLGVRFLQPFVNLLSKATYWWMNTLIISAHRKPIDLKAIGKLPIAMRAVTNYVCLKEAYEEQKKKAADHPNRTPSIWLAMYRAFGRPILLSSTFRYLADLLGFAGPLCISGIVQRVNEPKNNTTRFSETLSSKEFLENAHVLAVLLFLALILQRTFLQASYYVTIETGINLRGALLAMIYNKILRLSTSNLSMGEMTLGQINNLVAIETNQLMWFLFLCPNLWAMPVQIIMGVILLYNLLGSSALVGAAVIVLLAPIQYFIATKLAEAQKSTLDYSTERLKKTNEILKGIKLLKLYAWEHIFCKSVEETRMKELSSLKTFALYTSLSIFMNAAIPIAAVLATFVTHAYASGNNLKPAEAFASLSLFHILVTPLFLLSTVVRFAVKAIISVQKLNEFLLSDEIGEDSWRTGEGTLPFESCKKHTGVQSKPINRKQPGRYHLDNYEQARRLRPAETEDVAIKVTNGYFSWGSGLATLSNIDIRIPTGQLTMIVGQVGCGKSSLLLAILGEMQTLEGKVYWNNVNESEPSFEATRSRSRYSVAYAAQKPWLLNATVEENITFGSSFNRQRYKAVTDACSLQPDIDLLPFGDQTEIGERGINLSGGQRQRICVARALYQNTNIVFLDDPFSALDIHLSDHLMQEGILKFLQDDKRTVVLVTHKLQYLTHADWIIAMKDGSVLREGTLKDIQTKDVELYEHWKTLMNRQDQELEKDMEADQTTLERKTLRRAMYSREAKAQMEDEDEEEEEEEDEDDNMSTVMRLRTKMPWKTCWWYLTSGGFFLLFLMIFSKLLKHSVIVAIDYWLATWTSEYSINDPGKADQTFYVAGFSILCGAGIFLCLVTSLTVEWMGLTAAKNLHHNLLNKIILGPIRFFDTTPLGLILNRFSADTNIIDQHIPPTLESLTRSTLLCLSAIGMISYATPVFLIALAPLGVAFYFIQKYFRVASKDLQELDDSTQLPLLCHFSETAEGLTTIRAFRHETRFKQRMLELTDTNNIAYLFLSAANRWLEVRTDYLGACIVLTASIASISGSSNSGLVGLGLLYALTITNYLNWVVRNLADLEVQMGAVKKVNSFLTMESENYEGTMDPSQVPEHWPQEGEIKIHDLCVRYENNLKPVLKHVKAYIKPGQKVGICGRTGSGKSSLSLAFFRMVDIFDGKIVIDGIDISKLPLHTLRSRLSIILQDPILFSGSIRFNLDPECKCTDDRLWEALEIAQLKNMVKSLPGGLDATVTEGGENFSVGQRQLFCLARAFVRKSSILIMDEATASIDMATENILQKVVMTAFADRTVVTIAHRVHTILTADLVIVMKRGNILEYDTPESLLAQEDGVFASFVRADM
T1 sequence (Q63664 whole entry partner): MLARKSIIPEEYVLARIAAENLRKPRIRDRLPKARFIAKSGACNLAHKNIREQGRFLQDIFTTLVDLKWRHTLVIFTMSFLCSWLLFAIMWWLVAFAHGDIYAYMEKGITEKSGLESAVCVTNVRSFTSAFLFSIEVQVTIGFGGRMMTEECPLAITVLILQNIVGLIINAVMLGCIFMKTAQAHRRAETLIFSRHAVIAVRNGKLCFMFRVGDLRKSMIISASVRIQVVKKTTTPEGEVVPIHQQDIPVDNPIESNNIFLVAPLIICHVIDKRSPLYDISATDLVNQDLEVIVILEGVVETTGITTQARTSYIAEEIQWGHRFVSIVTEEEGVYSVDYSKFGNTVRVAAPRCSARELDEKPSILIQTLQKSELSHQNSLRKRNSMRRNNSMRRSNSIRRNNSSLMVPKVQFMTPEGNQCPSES

[2] = target: T1, ATP-sensitive potassium channels in vascular smooth muscles; assay: Association kinetics of [^3H]P1075 binding in aortic rings; parameters: species or system Wistar rat; details: 37° C.; drug M: Compound 1 10^−4, Glibencamide 10^−5, ATP 10^−2, ADP 10^−3, UDP 5 × 10^−5, GTP 10^−3, Ade 10^−3; control 4.36 ± 0.45; means ± SD, n = 4~10
Text: (§1) Biological activity experiment 4. Allosteric regulation of novel compounds on ATP-sensitive potassium channels in vascular smooth muscles.
(§2) To study the allosteric regulation of compound 1 on ATP-sensitive potassium channels in vascular smooth muscles, the radio-labled-ligand was used in the biological activity experiment 4.
(§3) 1. The allosteric regulation of compound 1 on the binding sites for the selective KATP blocker glibenclamide in vascular smooth muscles was studied as follows: After decapitated, the male Wistar rat (340±20 g) was immediately incised open the thoracic cavity. The aorta was dissected and immersed in the 4° C. buffer containing 10 mM HEPES to wash off the blood, then carefully extirpated the fat, peripheral connective tissues and thrombus. The aorta was cut into about 3-5 mm arterial rings and the vascular endothelium was scraped off with wet tampon. The arterial rings were blotted, weighted and transferred into the tubes containing proper amount of ice colded physiological saline buffer. In the association kinetics experiment, the arterial circles in the tubes were incubated with, compound 1(10^−4M), pinacidil(10^−4M), ATP(10^−2M), ADP(10^−3M), Ade(10^−3M), ADP(5×10^−5M) and equal volume of buffer respectively for 10 min in 25° C. water bath, and then added [^3H]-glibenclamide(3 nM). At 5,10,15,20,30,60,90 and 120 min after incubation, 9 mL ice colded Tris buffer (50 mM) was added to terminate the reaction. After washing off the free and bound [^3H]-glibenclamide, the aorta was blotted, transferred to a scintillator, added 50 uL 30% H2O2 and reacted for 2 h at 80° C. After cooling, 2.5 mL ethyl glycol and 5 mL 1% B-BPD xylene were added in sequence, kept stationary for 8 h and measured under a scintillometer for cpm value. The resulting data were fit into a regression line with In[BEQ/(BEQ-Bt)]vs.t and the parameters for association kinetics were obtained. In the disassociation kinetics experiments, the aorta treated as described above and [^3H]-glibenclamide were incubated for 60 min at 25° C., and then 30 uM glibenclamide was added. 0,5,15,30,60,90 and 120 min later, the cpm values for the complex of [^3H]-glibenclamide and KATP were measured. The resulting data were fit into a regression line with In(B/BEQ)]vs.t and the parameters for disassociation kinetics were obtained. 2. The allosteric regulation of compound 1 on the binding sites for the selective KATP activator P1075 in vascular smooth muscles was studied with the method as described above, but some conditions should be changed as follows: the incubation temperature was 37° C. instead of 25° C.;P1075 was used instead of glibenclamide; In the association kinetics experiments, the time points for sampling were 5,10,15,20,30,45,60 and 90 min, while in the disassociation kinetics experiments, that were 1,3,5,10,20,30,45 and 60 min. Biological activity experiment 5. The effects of compound 1 on the specific binding of high selective activator [^3H]P1075 with ATP-sensitive potassium channels in vascular smooth muscles.

[3] = target: T1, ATP-sensitive potassium channels in vascular smooth muscles; assay: Association and dissociation kinetics of [^3H]glibenclamide binding in aortic rings; parameters: species or system Wistar rat; details: drug M: compound 1 10^−4, pinacidil 10^−4, ATP 10^−2, ADP 10^−3, UDP 5 × 10^−3, Ade 10^−3; for Dissociation kinetics k2 of [^3H]glibenclamide binding / Association kinetics k1 of [^3H]glibenclamide binding / Association kinetics kobs of [^3H]glibenclamide binding / Association kinetics kA of [^3H]glibenclamide binding: 25° C.; for Dissociation kinetics k2 of [^3H]glibenclamide binding: control 0.72 ± 0.11; for Dissociation kinetics Kd of [^3H]glibenclamide binding in presence of the drug: Kd of the radioligand, not of the drug, control 0.55 ± 0.14; for Association kinetics k1 of [^3H]glibenclamide binding / Association kinetics kobs of [^3H]glibenclamide binding / Association kinetics kA of [^3H]glibenclamide binding: [^3H]-glibenclamide 3 nM; for Association kinetics k1 of [^3H]glibenclamide binding: control 1.31 ± 0.14; for Association kinetics kobs of [^3H]glibenclamide binding: control 4.65 ± 0.37, means ± SD, n = 4~10; for Association kinetics kA of [^3H]glibenclamide binding: control 181.90 ± 46.90
Text: as §1, §2
as §3, with “In the association kinetics experiment, the arterial circles in the tubes were incubated with, compound 1(10^−4M), pinacidil(10^−4M), ATP(10^−2M), ADP(10^−3M), Ade(10^−3M), ADP(5×10^−5M) and equal volume of buffer respectively for 10 min in 25° C. water bath, and then added [^3H]-glibenclamide(3 nM).” left out

[4] = test system: rats anesthetized with pentobarbital sodium; assay: Effects on blood pressure, heart rate, cardiac contraction and dilation in rats anesthetized with pentobarbital sodium; type: in vivo, Wistar rats; parameters: unit not given here; details: change after injection through femoral vein, '+' = increase, all others = decrease
Description: Biological activity experiment 1. The effects of 16 compounds represented by formula I on blood pressure, heart rate, cardiac contraction and dilation in rats anesthetized with pentobarbital sodium.
The methods of biological activity experiment 1 were as follows: Male Wistar rats, weighing 280±30 g were purchased from the experimental animal center of Academy of Military Medical Sciences. Rats were anesthetized with pentobarbital sodium (45 mg/kg) by peritoneal injection. A PE50 polyethylene catheter was inserted into the left ventricle through right carotid artery for cardiac function measurement with a pressure energe exchanger, wherein the signal is put into a SMUP-PC biosignal processing system. Cardiac functional parameters such as HR, LVSP, +dp/dtmax, −dp/dtmax and Vpm were recorded. Another two PE50 polyethylene catheters were inserted into the right femoral artery and vein respectively for blood pressure measurement wherein the artery cathether was linked to a four-channel physiology recorder (RM-6000) through a MPU-0.5A Type pressure energe exchanger, which recorded SBP, DBP and MBP, while the vein catheter was used for compound administration. The methods were described by Liu Wei et al: Liu Wei, Wang Hai, Xiao Wen-Bin. […] Bull Acad Mil Med Sci 1996;20(4):245˜248.

[5] = test system: outward potassium currents of rat tail arterial SMCs; assay: Whole cell recording of outward potassium currents in rat tail arterial SMCs; type: cell-based, Wistar rats; details: X ± SD n = 5
Text: Biological activity experiments 6. The effects of novel compounds on potassium currents in isolated arterial vascular smooth muscle cells (SMCs).
The outward currents were, elicited in rat tail arterial SMCs by superfusing extracellular solution under whole cell recording configuration that the depolarizing pulse were applied from −30 mV to +100 mV with the holding potential of −40 mV in 100 ms, 10 mV clamp steps, a frequency of 5 KHz. The compounds were applied in the bath at the concentrations of 100 μmol L^−1. The amplitude of the outward potassium currents was recorded before and after compound application Values were expressed as means±SD. Statistical significance between two groups was evaluated by student's t-test for paired data * P<0.05 **P<0.01 vs control.
1. Preparation of single smooth muscle cells from rat tail arteries: Male Wistar rats (200-250 g) were killed by exsanguination. The tail artery was dissected out and transferred into cold physiological salt solution (PSS) of the following composition (in mM): NaCl 118.3, KCl 4.7, KH2PO4 1.2, MgSO4 1.2, NaHCO3 25.0, CaCl2 2.5, EDTA 0.026 and Glucose 5.0 pH7.4. With the use of a dissecting microscope, the connective tissues were removed and the artery was cut open longitudinally. Endothelium was removed carefully with a cotton swab then the artery was cut into segments with 1 mm long and placed in 4° C. the extracellular solution containing (in mM) NaCl 130, KCl 5, MgCl2 1.2, HEPES 10, Glucose 10, pH7.2 for 20 min. After this incubation, the medium was changed to enzyme solution which was composed of collagenase I (1 mg ml^−1), papain (5 mg ml^−) and bovine serum albumin (2 mg ml^−1). The tissues, were incubated in this solution for 40 min, and then rinsed three times triturated using a fire-polished Pasteur pipette until the medium turned cloudily. The cell suspension was stored in the refrigerator at 4° C.
3. Whole cell recordings: A bath dish with the smooth muscle cells (SMCs) attached and superfused with the extracellular solution at a flow rate of 2 ml min^−1 was mounted onto the stage of an inverted-phase contrast microscope. The microelectrodes having a resistance of (5-8 MΩ) were made from boroscilicate thin-wall glass capillaries, using an automatic multiple-stage, electronic puller (PP830 Japan) and then heat-polished. After establishing a high resistance seal, the patch membrane was disrupted by negative pressure. A commercial patch clamp amplifier (Axon 200B) was used to generate and apply voltages and sample current signals from the cell.

[6] = mean, n = 3~5, doses mg/kg: 2, 8, 12: 10, 3-7, 9-11, 40-44: 5

Structure (SMILES)	Association kinetics kobs of [^3H]P1075 binding [2]	Dissociation kinetics k2 of [^3H]glibenclamide binding [3]	Dissociation kinetics Kd of [^3H]glibenclamide binding in presence of the drug [3] [µM]	Association kinetics k1 of [^3H]glibenclamide binding [3]	Association kinetics kobs of [^3H]glibenclamide binding [3]	Association kinetics kA of [^3H]glibenclamide binding [3]	also measured
COc1ccc(Cl)cc1C(=O)NCCc1ccc(S(=O)(=O)NC(=O)NC2CCCCC2)cc1 [glibenclamide, reference compound]	3.12 ± 0.17 ×10^−2 nM^−1 · min^−1	–	–	–	–	–	IC50 [1]: 58.9 ± 4.6 µM; Ki ([1]; read-out: pKi for inhibition of specific binding of [^3H]P1075 (converted)): 58.9 µM
O=c1ccn([C@@H]2O[C@H](COP(=O)(O)OP(=O)(O)O)[C@@H](O)[C@H]2O)c(=O)[nH]1 [UDP]	5.53 ± 0.51 ×10^−2 nM^−1 · min^−1	0.80 ± 0.22 ×10^2 nM^−1 · min^−1	0.0007 ± 0.00024	1.15 ± 0.23 ×10^−2nM^−1 · min^−1	4.26 ± 0.65 ×10^−2nM^−1 · min^−1	143.50 ± 49.00 ×10^−2nM^−1 · min^−1	–
CCCNC(C)(C)C(C)C [compound 5, N-propyl-2,3-dimethyl-2-butylamine]	–	–	–	–	–	–	melting point: 183 to 185 °C; MBP: mean blood pressure ([4]; n = 3~5, doses mg/kg: 2, 8, 12: 10, 3-7, 9-11, 40-44: 5): 28; DBP: diastolic blood pressure [4, 6]: 25; HR: heart rate [4, 6]: 78; LVSP: left ventricular systolic pressure [4, 6]: 162; SBP: systolic blood pressure [4, 6]: 34; Vpm: the physiological velocity of contractile element shorting [4, 6]: 0.58; −dp/dtmax: the maximal rate of the decrease of left ventricular pressure [4, 6]: 187; Currents, + Compound ([5]; outward potassium current amplitude after compound 100 μmol L^−1 in the bath): 0.67 ± 0.30 nA; Currents, Control (before compound application) ([5]; outward potassium current amplitude before compound application, same cells): 0.65 ± 0.30 nA
Nc1ncnc2c1ncn2[C@@H]1O[C@H](COP(=O)(O)OP(=O)(O)OP(=O)(O)O)[C@@H](O)[C@H]1O [ATP, adenosine triphosphate]	2.85 ± 0.08 ×10^−2 nM^−1 · min^−1	0.42 ± 0.14 ×10^2 nM^−1 · min^−1	0.00017 ± 6e-05	2.42 ± 0.34 ×10^−2nM^−1 · min^−1	7.69 ± 1.01 ×10^−2nM^−1 · min^−1	590.2 ± 208.20 ×10^−2nM^−1 · min^−1	–
Nc1ncnc2c1ncn2[C@@H]1O[C@H](COP(=O)(O)OP(=O)(O)O)[C@@H](O)[C@H]1O [ADP]	2.63 ± 0.48 ×10^−2 nM^−1 · min^−1	0.94 ± 0.10 ×10^2 nM^−1 · min^−1	0.00209 ± 0.00112	0.45 ± 0.24 ×10^−2nM^−1 · min^−1	2.28 ± 0.70 ×10^−2nM^−1 · min^−1	47.80 ± 25.70 ×10^−2nM^−1 · min^−1	–
